# Like-named read-outs stand apart in the source and are kept apart here.
# Key:
# [1] = test system: APP-CTFs (CTFα, AICD) in SKNSH-SY5Y APPwt cells; test: Western blotting of APP carboxy-terminal fragments (CTFα, AICD) in treated cells; assay type: cell-based; settings: Homo sapiens, 24 h
# Experimental: (§1) The human neuroblastoma cell line SKNSH-SY5Y APP^wt is cultured in Dulbecco's modified Eagle medium (Invitrogen) supplemented with 10% fetal calf serum (PAA), 2 mM L-glutamine (Invitrogen), 1 mM non-essential amino acids (Invitrogen), 50 units/ml penicillin/streptomycin (Invitrogen) and 200 μg geneticin (G418; Invitrogen) (selection for cell expressing APP) in a 5% CO2 humidified incubator at 37° C. Cells are seeded into 96-wells plates (20000 cells/well) for cytotoxicity assay and 12-wells plate (300000 cells/well) for western blotting for 18 h.
# (§2) For western blotting, cells are incubated with 700 μl/well of each product at 10; 3; 1 and 0.31 μM in a 5% CO2 incubator at 37° C. for 24 h. The following day, culture medium samples are collected for ELISA assay and stored at −80° C. Cells are rinsed very slowly with cold PBS, snap-frozen on dry ice and immediately stored at −80° C.
# Cells in twelve-well plates are collected in 50 μl Laemmli Lysis Buffer (pH 6.8, 50 mM Tris Base, 2% SDS, 20% Glycerol, 1 mM sodium pyrophosphate, 1 mM sodium orthovanadate and Protease Inhibitor Cocktail Complete Mini-Roche) per well. Cells are scrapped and lysates sonicated for 5 min.
# Protein content is determined using the BCA Method (Pierce). Samples containing equal amounts of protein (35 μg total protein for mice and 20 μg total protein for cells per well) are heated at 85° C. for 2 min after thawing and electrophoresed for 2.45 h at 125 V in a 16% Tricine precast gels according to the protocol supplied with the NuPAGE system (Invitrogen). After size fractionation, the proteins are transferred onto nitrocellulose 0.2 μm pore-size membranes (Invitrogen) in the blot module of the NuPAGE sytem for 1 h at room temperature (RT). Blots are blocked for 1 h in TNT with 0.05% Tween 20 and 5% nonfat milk at RT, incubated overnight at 4° C. with anti-C term APP C1:3-2429 (1:250000) primary antibody and washed four times with TNT before being exposed to peroxidase labeled anti-mouse IgG (H+L) C4 94010 (1:50000; Vector) secondary antibody for […] at 25° C. The immunoreactions are detected with SuperSignal West Pico Chemiluminescent Substrate (Thermo specific, 34077). Images are scanned with LAS-3000 Image System (Global FUJIFILM) and bands quantified by ImageJ 1.37v computer program. The different APP-CTF bands are detected as a function of their molecular mass, as described in Vingtdeux, V., Hamdane, M., Gompel, M. et al. (2005) Phosphorylation of amyloid precursor carboxy-terminal fragments enhances their processing by a gamma-secretase-dependent mechanism. Neurobiol Dis, 20, 625-637. Graphs and statistical analysis of results is performed with Graph Pad Prism (version 4.02) computer program.
# β-amyloid 1-42 = test: Innotest β-amyloid 1-42 ELISA on SY5Y culture medium; assay type: cell-based; settings: Homo sapiens, 24 h, compared to a control with a value of 100, read-out: Aβ 1 μM*
# Experimental: as §1, §2
# The β-amyloid 1-42 rate is quantified in SY5Y cells-culture medium by using the Innotest β-amyloid 1-42 (80324 Innogenetics®) according to the manufacturer instructions. Briefly, Fresh culture medium is used to dilute the standard. Culture samples are centrifuged at 200 g at 4° C. during 5 minutes in order to eliminate cell fragments.
# First, 75 μl of the conjugate working solution1 (3D6 biotinylated antibody) is added to a 21F12 Ab precoated well. Twenty five μl of pure supernatant samples are then added to the coated well, and incubated for 1 h. Then the plate is washed 5 times with the washing buffer. Then 100 μl of peroxidase-labeled streptavidin (conjugate working solution 2) is added and incubated for 30 min at RT. After washing the plate 5 times, 100 μl of tetramethyl benzidine (substrate working solution) is added onto the plate and incubated for 30 minutes in the dark. The reaction is stopped with 50 μl 0.9N sulfuric acid (stop solution). The absorbance is read at 450 nm.
# A sigmoidal curve fitting (four parameter […] curve) is used to calculate the standard curve. The corresponding concentration of β-amyloid (1-42) in pg/ml is determined from the standard curve. Results are expressed in concentration of β-amyloid in pg per μg of total proteins. Graphs and statistic analyses (t Test) are performed with Graph Pad Prism computer program (V0.5).
# [2] = Cytotoxicity CC50 on MRC-5; assay type: cell-based; settings: human, MRC-5 cells
# APP-CTFα = test: In vivo mice treatment, western blotting of APP-CTFs in prefrontal cortex; settings: C57Bl6 female mice, 12.5, 25, 50 mg/kg intraperitoneally once, prefrontal cortex 24 h after, versus vehicle
# Experimental: Test molecules are intraperitoneally injected to 4 month old C57BI6 females mice either at 12.5; 25; 50 mg/kg or vehicule once, and sacrificed 24 h after by decapitation. Brain is immediately removed and Prefrontal Cortex is dissected by using a cold zinc brain matrix. The total dissection time was <3 min from decapitation. Following dissection tissue is frozen in dry ice and then stored at −80° C. for western blotting.
# Protein extracts of Prefrontal Cortex samples are prepared in 50 μl Laemmli Lysis Buffer (pH 6.8, 50 mM Tris Base, 2% SDS, 20% Glycerol, 1 mM sodium pyrophosphate, 1 mM sodium orthovanadate and Protease Inhibitor Cocktail Complete Mini-Roche) by trituration of the fragments in a 0.2 ml glass micro tissue grinder. […]
# Protein content is determined using the BCA Method (Pierce). […] The immunoreactions are detected with SuperSignal West Pico Chemiluminescent Substrate (Thermo specific, 34077). Images are scanned with LAS-3000 Image System (Global FUJIFILM) and bands quantified by ImageJ 1.37v computer program. The different APP-CTF bands are detected as a function of their molecular mass, as described in Vingtdeux, V., Hamdane, M., Gompel, M. et al. (2005) Phosphorylation of amyloid precursor carboxy-terminal fragments enhances their processing by a gamma-secretase-dependent mechanism. […]
# [3] = compared to a control with a value of 100, read-out: CTFα 1 μM*
# [4] = AICD, compared to a control with a value of 100, read-out: AlCD 1 μM*
Structure (SMILES),"activity at 1 µM [1, 3] [%]","activity at 1 µM [1, 4] [%]",activity at 1 µM (β-amyloid 1-42) [%],CC50 [2] [µM],melting point [°C],"production of APP-CTFα (optical density, FIG. 1) (APP-CTFα)"
"Cc1cc(Nc2ccnc3cc(Cl)ccc23)cc(CN2CCCC2)c1N1CCN(C)CC1 [compound 59, 7-Chloro-N-[3-methyl-4-(4-methylpiperazin-1-yl)-5-(pyrrolidin-1-ylmethyl)phenyl]quinolin-4-amine]",629,325,73,–,–,–
"CN1CCN(c2cc(Nc3ccnc4cc(Cl)ccc34)cc(N3CCN(C)CC3)c2)CC1 [compound 70, N-[3,5-bis(4-methylpiperazin-1-yl)phenyl]-7-chloroquinolin-4-amine]",687,515,–,–,–,–
"CN1CCN(c2cc(O)cc(Nc3ccnc4cc(Cl)ccc34)c2)CC1 [compound 72, 3-[(7-chloroquinolin-4-yl)amino]-5-(4-methyl-piperazin-1-yl)phenol]",105,80,100,–,–,–
"CN1CCN(c2ccc(Nc3ccnc4cc(Cl)ccc34)cc2CNC(C)(C)C)CC1 [compound 56, N-{3-[(tert-butylamino)methyl]-4-(4-methylpiperazin-1-yl)phenyl}-7-chloroquinolin-4-amine]",183,823,45,–,–,–
"CN(C)CCCN1CCN(C(=O)c2cc(Nc3ccnc4cc(Cl)ccc34)cc(C(=O)N3CCN(CCCN(C)C)CC3)c2)CC1 [compound 64, N-[3,5-Bis({4-[3-(dimethylamino)propyl]piperazin-1-yl}carbonyl)phenyl]-7-chloroquinolin-4-amine]",106,669,31,–,–,–
"CCN(CC)Cc1cc(Nc2ccnc3cc(Cl)ccc23)ccc1F [compound 84, 7-chloro-N-(3-((diethylamino)methyl)-4-fluorophenyl)quinolin-4-amine]",358,209,–,< 10,–,–
"N#Cc1cc(NCCN2CCCCC2)cc(Nc2ccnc3cc(Cl)ccc23)c1 [compound 77, 3-[(7-chloroquinolin-4-yl)amino]-5-{[2-(piperidin-1-yl)ethyl]amino}benzonitrile]",–,618,85,–,–,–
"COC(=O)c1cc(Nc2ccnc3cc(Cl)ccc23)cc(C(=O)N2CCN(CCCN(C)C)CC2)c1 [compound 69, Methyl 3-[(7-chloroquinolin-4-yl)amino]-5-({4-[3-(dimethylamino)propyl]piperazin-1-yl}carbonyl)benzoate]",126,302,46,–,–,–
"Clc1ccc2c(Nc3ccc(N4CCOCC4)c(CN4CCCC4)c3)ccnc2c1 [compound 86, 7-chloro-N-[4-(morpholin-4-yl)-3-(pyrrolidin-1-ylmethyl)phenyl]quinolin-4-amine]",–,–,–,–,187 to 188,–
"N#Cc1cc(/N=c2\ccn(CCN3CCCCC3)c3cc(Cl)ccc23)cc(NCCN2CCCCC2)c1 [compound 76, 3-({7-Chloro-1-[2-(piperidin-1-yl)ethyl]-1,4-dihydroquinolin-4-ylidene}amino)-5-{[2-(piperidin-1-yl)ethyl]amino}benzonitrile]",–,–,76,–,–,–
"Oc1c(CN2CCCC2)cc(Nc2ccnc3cc(Cl)ccc23)cc1CN1CCCC1 [compound 66, 4-[(7-Chloroquinolin-4-yl)amino]-2,6-bis (pyrrolidin-1-ylmethyl)phenol]",754,886,19,–,–,increases the production of APP-CTFα
"N#Cc1cc(N)cc(Nc2cc[n+](CCN3CCCCC3)c3cc(Cl)ccc23)c1 [compound 74, 4-[(3-amino-5-cyanophenyl)amino]-7-chloro-1-[2-(piperidin-1-yl)ethyl]quinolin-1-ium chloride]",–,–,44,–,–,–
"CN1CCN(c2ccc(Nc3ccnc4cc(Cl)ccc34)cc2CN2CCOCC2)CC1 [compound 57, 7-chloro-N-[4-(4-methylpiperazin-1-yl)-3-(morpholin-4-ylmethyl)phenyl]quinolin-4-amine]",194,757,19,–,–,–
